Reference: publication PMC12673082 (Nature Communications, 2025)
In brackets after ≈: the same amount, converted by molar mass.

How the values were obtained:
[1] = test system: pdP2X7 K297R; assay: Whole-cell patch clamp, pdP2X7 mutant; format: cell-based, giant panda; conditions: pd7K297R, 30 μM
[2] = test system: pdP2X7 Y298A; assay: Whole-cell patch clamp, pdP2X7 mutant; format: cell-based, giant panda; conditions: pd7Y298A, 30 μM
[3] = biological target: T1, pdP2X7 M105F (Ailuropoda melanoleuca, UniProt G1M6C4, M106F); conditions: pd7 M105F, 10 μM
[4] = biological target: pdP2X7 F103A (Ailuropoda melanoleuca, UniProt G1M6C4, F104A); conditions: pd7 F103A, 10 μM
[5] = biological target: pdP2X7 F88A (Ailuropoda melanoleuca, UniProt G1M6C4, F89A); conditions: pd7 F88A, 10 μM
[6] = biological target: pdP2X7 Y298F (Ailuropoda melanoleuca, UniProt G1M6C4, Y299F); conditions: pd7 Y298F, 10 μM
[7] = Maximal soluble concentration in recording solution; format: physicochemical
[8] = biological target: pdP2X7 P96G (Ailuropoda melanoleuca, UniProt G1M6C4, P97G); assay: cell-based
[9] = biological target: hP2X3 (Homo sapiens, UniProt P56373); assay: Nystatin-perforated patch recording, ATP-evoked current, HEK293; format: cell-based; conditions: HEK293, read-out: inhibition rate
[10] = biological target: T2, mP2X7 (Mus musculus, UniProt Q9Z1M0); assay: Whole-cell patch clamp, ATP-evoked current, transfected HEK293; format: cell-based; conditions: HEK293, read-out: inhibition rate
T2 sequence (Q9Z1M0 1-595): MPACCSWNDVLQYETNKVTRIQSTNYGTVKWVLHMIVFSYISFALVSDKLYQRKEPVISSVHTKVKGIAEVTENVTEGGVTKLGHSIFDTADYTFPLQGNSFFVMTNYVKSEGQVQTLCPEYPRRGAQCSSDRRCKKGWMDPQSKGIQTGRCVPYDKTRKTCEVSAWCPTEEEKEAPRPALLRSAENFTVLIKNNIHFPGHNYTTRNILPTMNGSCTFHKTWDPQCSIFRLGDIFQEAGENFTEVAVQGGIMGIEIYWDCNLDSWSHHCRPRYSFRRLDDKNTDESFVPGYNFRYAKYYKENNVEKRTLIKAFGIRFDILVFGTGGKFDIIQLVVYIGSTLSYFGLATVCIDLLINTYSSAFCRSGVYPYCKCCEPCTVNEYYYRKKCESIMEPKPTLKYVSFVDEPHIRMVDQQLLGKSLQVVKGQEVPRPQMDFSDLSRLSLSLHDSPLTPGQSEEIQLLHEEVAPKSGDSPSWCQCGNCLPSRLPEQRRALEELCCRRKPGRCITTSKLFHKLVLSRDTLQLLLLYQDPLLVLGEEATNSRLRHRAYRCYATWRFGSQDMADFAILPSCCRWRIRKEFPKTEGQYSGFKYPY

[11] = biological target: T1, pdP2X7 M105F; assay: cell-based
[12] = biological target: hP2X1 (Homo sapiens, UniProt P51575); assay: Whole-cell patch clamp, ATP-evoked current, transfected HEK293; format: cell-based; conditions: HEK293, read-out: inhibition rate
Chain of hP2X1 (P51575 whole entry): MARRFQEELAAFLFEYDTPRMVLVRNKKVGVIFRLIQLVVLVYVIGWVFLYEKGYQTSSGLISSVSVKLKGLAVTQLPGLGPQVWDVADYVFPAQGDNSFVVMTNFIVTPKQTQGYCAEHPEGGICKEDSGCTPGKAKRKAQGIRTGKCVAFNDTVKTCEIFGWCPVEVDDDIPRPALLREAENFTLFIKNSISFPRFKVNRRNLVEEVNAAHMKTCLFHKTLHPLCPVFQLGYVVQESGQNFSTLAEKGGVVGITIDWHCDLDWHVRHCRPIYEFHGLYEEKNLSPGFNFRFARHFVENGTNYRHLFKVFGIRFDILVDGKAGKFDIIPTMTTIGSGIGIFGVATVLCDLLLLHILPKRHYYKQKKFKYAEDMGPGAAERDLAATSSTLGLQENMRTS

T1 sequence (G1M6C4 2-595 M106F): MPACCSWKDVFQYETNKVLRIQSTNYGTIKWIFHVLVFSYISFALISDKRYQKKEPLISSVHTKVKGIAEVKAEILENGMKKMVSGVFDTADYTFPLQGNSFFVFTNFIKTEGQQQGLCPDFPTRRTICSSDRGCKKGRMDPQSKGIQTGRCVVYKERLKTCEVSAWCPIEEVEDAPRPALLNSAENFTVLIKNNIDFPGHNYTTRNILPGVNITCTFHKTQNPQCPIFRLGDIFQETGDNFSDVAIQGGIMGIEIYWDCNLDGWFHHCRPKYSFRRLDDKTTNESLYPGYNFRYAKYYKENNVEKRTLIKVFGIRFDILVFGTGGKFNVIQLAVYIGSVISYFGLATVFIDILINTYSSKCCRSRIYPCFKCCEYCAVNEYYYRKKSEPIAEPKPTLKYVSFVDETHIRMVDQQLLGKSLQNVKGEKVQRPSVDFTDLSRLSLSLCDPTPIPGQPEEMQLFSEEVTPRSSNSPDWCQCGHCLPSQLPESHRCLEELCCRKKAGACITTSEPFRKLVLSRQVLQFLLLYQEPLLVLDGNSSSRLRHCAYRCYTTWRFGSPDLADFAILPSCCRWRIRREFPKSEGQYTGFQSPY
Chain of pdP2X7 Y298F (G1M6C4 2-606 Y299F): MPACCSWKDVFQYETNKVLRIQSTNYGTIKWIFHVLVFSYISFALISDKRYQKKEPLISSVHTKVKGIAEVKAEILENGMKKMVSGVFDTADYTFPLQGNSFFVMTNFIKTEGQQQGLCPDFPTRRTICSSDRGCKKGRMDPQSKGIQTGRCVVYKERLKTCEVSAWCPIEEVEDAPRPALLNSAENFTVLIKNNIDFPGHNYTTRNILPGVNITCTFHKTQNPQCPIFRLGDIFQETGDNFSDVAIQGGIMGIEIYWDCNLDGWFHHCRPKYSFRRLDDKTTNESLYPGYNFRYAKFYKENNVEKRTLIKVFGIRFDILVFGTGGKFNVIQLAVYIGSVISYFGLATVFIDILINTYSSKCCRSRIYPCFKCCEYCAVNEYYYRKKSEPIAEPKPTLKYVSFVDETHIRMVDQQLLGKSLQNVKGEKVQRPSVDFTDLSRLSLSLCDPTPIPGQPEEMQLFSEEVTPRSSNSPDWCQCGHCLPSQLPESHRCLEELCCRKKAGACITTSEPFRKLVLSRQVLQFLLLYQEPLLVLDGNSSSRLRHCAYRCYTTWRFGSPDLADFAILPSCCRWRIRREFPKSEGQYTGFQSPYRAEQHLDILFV
Chain of hP2X3 (P56373 whole entry): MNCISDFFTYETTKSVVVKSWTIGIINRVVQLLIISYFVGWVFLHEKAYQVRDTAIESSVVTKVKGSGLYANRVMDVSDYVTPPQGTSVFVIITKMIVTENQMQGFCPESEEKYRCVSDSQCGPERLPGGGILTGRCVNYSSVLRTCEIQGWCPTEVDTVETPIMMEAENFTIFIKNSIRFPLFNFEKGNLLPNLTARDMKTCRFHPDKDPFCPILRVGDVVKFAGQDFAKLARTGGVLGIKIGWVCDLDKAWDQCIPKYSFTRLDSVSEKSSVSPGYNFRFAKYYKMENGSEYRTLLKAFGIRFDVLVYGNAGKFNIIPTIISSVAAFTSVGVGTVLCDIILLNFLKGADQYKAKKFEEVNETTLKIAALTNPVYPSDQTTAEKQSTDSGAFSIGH
Chain of pdP2X7 P96G (G1M6C4 2-595 P97G): as the sequence (G1M6C4 2-595 M106F) above, with P96G, F105M counted along it
Chain of pdP2X7 F103A (G1M6C4 2-595 F104A): as the sequence (G1M6C4 2-595 M106F) above, with F103A, F105M counted along it
Chain of pdP2X7 F88A (G1M6C4 2-595 F89A): as the sequence (G1M6C4 2-595 M106F) above, with F88A, F105M counted along it

SMILES: C=CC[C@@H]1c2ccc(OC)c(OC)c2CN2CCc3cc4c(cc3[C@H]12)OCO4 [PSFL1191, (13R,13aS)-13-allyl-9,10-dimethoxy-5,8,13,13a-tetrahydro-6H-1,3dioxolo[4,5-g]isoquinolino[3,2-a]isoquinoline]
- inhibition rate [1]: ≤ 50%
- inhibition rate [2]: ≤ 50%
- inhibitory effect on ATP (1 mM)-induced activation (inhibition ratio) [3]: significantly attenuated
- inhibitory effect on ATP (1 mM)-induced activation (inhibition ratio) [4]: significantly attenuated
- inhibitory effect on ATP (1 mM)-induced activation (inhibition ratio) [5]: significantly attenuated
- inhibitory effect on ATP (1 mM)-induced activation (inhibition ratio) [6]: significantly attenuated
- solubility [7]: 30 µM (≈ 11.4 µg/mL)
- IC50 [8]: 8.06 µM
- inhibition at 30 µM [9]: 20.6 ± 6.4%
- inhibition at 30 µM [10]: 13.3 ± 3.04%
- IC50 [11]: 2.06 µM
- inhibition at 30 µM [12]: -8.35 ± 4.49%
